Data on 5 compounds can be found in ChEMBL document CHEMBL1201862, “PubChem BioAssay data set” (2004).

SMILES strings stand for the structures.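 Method: 48-hour compound exposure of cells in 96-well plates, five concentrations, linear interpolation of endpoints. GI50 marks 50% less growth.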 Calls of active or inactive are those of the source. Rule as the data show it: active = GI50 up to about 1.1 µM and inactive = higher. A value given as a limit tells only on which side of the number the result lay.

Some test systems named below: MOLT-4; NCI/ADR-RES; ACHN; SNB-75; SW-620; MDA-MB-231; A549; HL-60; UACC-62; Hs-578T; MDA-N; NCI-H226; 786-0; Malme-3M; SK-MEL-5; HT-29; M14; TK-10; SF-539; COLO 205.
What all share (assay): NCI tumour cell line growth inhibition, 48 h

On to `COc1ccc(Cc2c(-c3ccc(C)cc3)n[nH]c(=O)c2C2C(=O)N(c3ccccc3)N=C2c2ccccc2)cc1` (stereo not given), for which the GI50 in the test with MOLT-4 was 23.1 µM (inactive); with NCI/ADR-RES it was 25.1 µM (inactive); with ACHN, 30.9 µM (inactive); with SNB-75 it was 23.9 µM (inactive); with SW-620, 37.7 µM (inactive); with MDA-MB-231, 35.6 µM (inactive). Besides, the GI50 in the test with A549 is 31.4 µM (inactive); in the test on HL-60, 39.3 µM (inactive); in the test on UACC-62, 20 µM (inactive); in the test with Hs-578T it was 31.6 µM (inactive); with MDA-N, 24.4 µM (inactive); in the test on NCI-H226, 29.4 µM (inactive). Also, the GI50 in the test on 786-0 was 35.7 µM (inactive); in the test with Malme-3M it was 24.1 µM (inactive); with SK-MEL-5, 20.7 µM (inactive); in the test on HT-29, 31.7 µM (inactive); in the test on M14, 26.9 µM (inactive); in the test with TK-10, 29.2 µM (inactive). Besides, the GI50 in the test with SF-539 was 25.1 µM (inactive); in the test on COLO 205, 20.7 µM (inactive).

As to `CC1OC(O[C@H]2CC[C@]3(C=O)[C@H]4CC[C@]5(C)[C@H](C6=CC(=O)OC6)CC[C@]5(O)[C@@H]4C=C[C@]3(O)C2)CC(O)C1O` (stereo not given in full), the GI50 with MOLT-4 is 0.083 µM (active); with NCI/ADR-RES, 0.27 µM (active); with ACHN it was 0.106 µM (active); in the test on SNB-75, 0.484 µM (active); in the test with SW-620, 0.313 µM (active); in the test on MDA-MB-231, 0.433 µM (active). Also, the GI50 with A549 is 0.113 µM (active); in the test with HL-60, 0.196 µM (active); with UACC-62, 0.434 µM (active); in the test with Hs-578T it was 0.239 µM (active); with MDA-N, 0.332 µM (active); in the test with NCI-H226, 0.514 µM (active). Moreover, the GI50 was 0.0871 µM (active) in the test on 786-0; 0.13 µM (active) in the test on Malme-3M; 0.0991 µM (active) in the test with SK-MEL-5; 0.321 µM (active) in the test on HT-29; 0.386 µM (active) in the test with M14; 0.29 µM (active) with TK-10. Besides, the GI50 in the test on SF-539 was 0.169 µM (active); with COLO 205 it was 0.675 µM (active).

For the compound `COc1cccc(-c2cc(O)c3cc(OC)ccc3n2)c1`, the GI50 in the test on MOLT-4 is 0.311 µM (active); in the test on NCI/ADR-RES, 0.173 µM (active); with ACHN, 1.74 µM (inactive); in the test with SNB-75, 0.318 µM (active); in the test on SW-620, 0.281 µM (active); in the test with MDA-MB-231, 0.368 µM (active). For the same compound, the GI50 in the test on A549 was 0.367 µM (active); in the test with HL-60, 0.0791 µM (active); with UACC-62 it was 0.182 µM (active); in the test on Hs-578T, 0.24 µM (active); with MDA-N, 0.047 µM (active); with NCI-H226 it was 0.396 µM (active). Moreover, the GI50 in the test on 786-0 is 0.376 µM (active); in the test on Malme-3M it was 0.0553 µM (active); with SK-MEL-5, 0.182 µM (active); in the test on HT-29, 0.33 µM (active); in the test with M14 it was 0.235 µM (active); with TK-10, 0.5 µM (active). Further, the figures for the GI50 in the test on SF-539 and in the test on COLO 205 were 0.188 µM (active) and 0.201 µM (active), respectively.

As to `COC1(C)CCC(OS(C)(=O)=O)CO1` (stereo not given), the GI50 with MOLT-4, in the test on NCI/ADR-RES, in the test with ACHN, with SNB-75, in the test with SW-620 and in the test with MDA-MB-231 was > 100 µM (inactive) each time. The GI50 in the test on A549, in the test on HL-60, in the test on UACC-62, in the test with Hs-578T, in the test on MDA-N and with NCI-H226 was > 100 µM (inactive) in each case. For the same compound, the GI50 in the test on 786-0, with Malme-3M, in the test with SK-MEL-5, in the test on HT-29, in the test on M14 and in the test with TK-10 was > 100 µM (inactive) throughout. The GI50 in the test on SF-539 and in the test with COLO 205 was > 100 µM (inactive) each time.

Regarding `CC(=O)OC1CC2(C)C(=CC1C1SCCS1)CCC1C2CCC2(C)C(OC(C)=O)CCC12` (stereo not given), the GI50 is > 100 µM (inactive) in the test on MOLT-4; > 100 µM (inactive) in the test with NCI/ADR-RES; > 100 µM (inactive) with ACHN; 13.2 µM (inactive) in the test on SNB-75; > 100 µM (inactive) in the test with SW-620; 34.9 µM (inactive) in the test with MDA-MB-231. Besides, the GI50 is > 100 µM (inactive) with A549; > 100 µM (inactive) in the test on HL-60; > 100 µM (inactive) in the test on UACC-62; 14.6 µM (inactive) in the test with Hs-578T; > 100 µM (inactive) in the test with MDA-N; > 100 µM (inactive) with NCI-H226. Further, the GI50 is > 100 µM (inactive) in the test with 786-0; > 100 µM (inactive) in the test with Malme-3M; > 100 µM (inactive) with SK-MEL-5; > 100 µM (inactive) in the test with HT-29; > 100 µM (inactive) in the test with M14; 64.1 µM (inactive) in the test on TK-10. The GI50 in the test with SF-539 is 53.1 µM (inactive); with COLO 205 it was > 100 µM (inactive).
